This note sets out measurements from US20130287763A1, “COMBINATION THERAPY FOR TREATING CANCER COMPRISING AN IGF-1R INHIBITOR AND AN AKT INHIBITOR” (MERCK SHARP & DOHME CORP., priority 2010, published 2013).

“Also recorded” adds a separate entry of the source.

Assay [1] relates to HT-29 cells. Nature of the assay: Phospho-RTK arrays, HT-29 cells. Format: cell-based, human. How it is done: (§1) All CRC and NSCLC cell lines were obtained from ATCC and maintained in 10% fetal bovine serum, FBS (Hyclone) containing media (DMEM or RPMI; Invitrogen Inc) supplemented with pen-strep (Invitrogen) at 37° C. according to the instructions from ATCC.
(§2) About 2 million cells were cultured in 10 cm plates and protein lysates were prepared from a sub-confluent culture. 500 ug of protein lysate were incubated with RTK Arrays (R&D bioscience; cat# ARY001) and developed as detailed in the manual. The arrays were probed with HRP-conjugated P-Tyr antibody and then incubated with Super-Signal chemiluminescence substrate (Pierce) and blots were then exposed to a Kodak Biomax Light Film.

Assay [2] relates to SKCO1 (CRC), HCC70 (breast cancer), H1793 (NSCLC) cells. Nature of the assay: Phospho-RTK arrays, cell lines from different cancer types. The note with it: cell type-dependent. Format: cell-based, human. How it is done:
as §2, with “All CRC and NSCLC cell lines were obtained from ATCC and maintained in 10% fetal bovine serum, FBS (Hyclone) containing media (DMEM or RPMI; Invitrogen Inc) supplemented with pen-strep (Invitrogen) at 37° C. according to the instructions from ATCC. About” for “About”

Assay [3] deals with SW837 (KRASG12C) xenograft tumors. The assay can be described thus: SW837 xenograft growth assessment. The note with it: compared to the vehicle treated group (FIG. 5). The format is in vivo, mice. How it is done: (§3) A suspension of human SKCO1 and SW837 cells (5×10^6) and HT29 (3×10^6) in Matrigel (Cat. #356231, BD Biosciences; 1:1 v/v) were injected subcutaneously into the right flank of 4-6 week old SCID Hairless Outbred (SHO), NOD SCID, or CD-1 nu/nu (Jackson Laboratories) mice, respectively. When tumors reached a size of ˜300 mm3 (Length*Width*Width*0.5), mice were randomized into treatment groups. […] Animals were weighed and tumor volumes were determined by calipering 2 times per week during the study and at termination. Tumor weight was measured and recorded at termination. On day 28 animals were sacrificed by CO2 asphyxiation. […] At time of sacrifice tumors pieces were collected for western blot analysis (snap frozen in liquid nitrogen) and for immunohistochemistry (10% neutral buffered formalin).

Assay [4] relates to SKCO1 (KRASmut) xenograft tumors. Nature of the assay: SKCO1 xenograft growth assessment. The following applies: MK-0646 20 mg/kg i.p. once a week, MK-2206 140 mg/kg p.o. 3-times a week (FIG. 4). Format: in vivo, mice. How it is done: as §3
Assay [5] concerns HT-29 cells. Nature of the assay: Western blot of HT-29 cells treated with increasing doses of MK-2206. The format is cell-based, human. The note with it: MK-2206 0.041-1.11 um, western blot (FIG. 1A). How it is done:
All CRC and NSCLC cell lines were obtained from ATCC and maintained in 10% fetal bovine serum, FBS (Hyclone) containing media (DMEM or RPMI; Invitrogen Inc) supplemented with pen-strep (Invitrogen) at 37° C. according to the instructions from ATCC. Total protein lysates from cells (˜0.3 million) cultured in 6 well plates were generated by removing the media, rinsing once with PBS and lysing in NP-40 buffer (1% NP-40, 20 MM Tris-HCL (pH8.0), 137 mM NaCl, 10% glycerol, 2 mM EDTA, Mini Complete protease inhibitor, HALT phosphatase Inhibitor cocktail). Samples were western blotted with indicated total or phosphor-specific antibodies followed by a secondary antibody (Cell Signaling Technology, CST) and then incubated with SuperSignal chemiluminescence substrate (Pierce). The blots were then exposed to a Kodak Biomax Light Film. The antibodies against ERK, p-ERK (Thr202/Tyr204), AKT and p-AKT (Ser473), IGF1R13, S6K & P-S6K (T389), IRS1 & P-IRS1 (S302) and actin were obtained from CST. Total IGF1R antibody was obtained from Santa Cruz and GAPDH was obtained from Chemicon.
A general note: In western blotting, separated proteins are transferred to a membrane and probed.

A further assay relates to IGF-1R signaling pathway. The assay can be described thus: Western blot analysis of IGF-1R/PI3K pathway activity in xenograft tumor samples. Format: in vivo, mice. The note with it: 24 hrs after MK-0646 or 6 hrs after MK-2206 (FIG. 6). As to the method: Total protein lysates from cells (˜0.3 million) cultured in 6 well plates were generated by removing the media, rinsing once with PBS and lysing in NP-40 buffer (1% NP-40, 20 MM Tris-HCL (pH8.0), 137 mM NaCl, 10% glycerol, 2 mM EDTA, Mini Complete protease inhibitor, HALT phosphatase Inhibitor cocktail). Samples were western blotted with indicated total or phosphor-specific antibodies followed by a secondary antibody (Cell Signaling Technology, CST) and then incubated with SuperSignal chemiluminescence substrate (Pierce). The blots were then exposed to a Kodak Biomax Light Film. The antibodies against ERK, p-ERK (Thr202/Tyr204), AKT and p-AKT (Ser473), IGF1R13, S6K & P-S6K (T389), IRS1 & P-IRS1 (S302) and actin were obtained from CST. Total IGF1R antibody was obtained from Santa Cruz and GAPDH was obtained from Chemicon. A suspension of human SKCO1 and SW837 cells (5×10^6) and HT29 (3×10^6) in Matrigel (Cat. #356231, BD Biosciences; 1:1 v/v) were injected subcutaneously into the right flank of 4-6 week old SCID Hairless Outbred (SHO), NOD SCID, or CD-1 nu/nu (Jackson Laboratories) mice, respectively. When tumors reached a size of ˜300 mm3 (Length*Width*Width*0.5), mice were randomized into treatment groups. […] Animals were weighed and tumor volumes were determined by calipering 2 times per week during the study and at termination. Tumor weight was measured and recorded at termination. […]

A further assay has as its system SW-837 cells. The assay can be described thus: Phospho-RTK arrays, SW-837 cells. The format is cell-based, human. The note with it: SW-837, 20.95 ug/ml MK-0646, 18 hrs (FIG. 3C). How it is done: as §1, §2
Setting [6] is: HT-29 cells, 1 uM MK-2206, 18 hrs, RTK arrays (FIG. 1B).

In the case of `NC1(c2ccc(-c3nc4ccn5c(=O)[nH]nc5c4cc3-c3ccccc3)cc2)CCC1` [MK-2206, 8-[4-(1-Aminocyclobutyl)phenyl]-9-phenyl[1,2,4]triazolo[3,4-f]-1,6-naphthyridin-3(2H)-one], in the assay with HT-29 cells [1] (setting [6]), the “phosphorylation of IGF-1R” value is reported as “increase”; the “phosphorylation of IR and cMET” value is listed as “observed”. Besides, in assay [2] (MK-2206, 18 hrs, RTK arrays (FIG. 2)), the “RTK activity (Her2)” value is on record as “can decrease”. In addition, the “phosphorylation of RTKs (IGF-1R, IR, cMET, Her2, Her3, EphA2)” value in assay [2] (SKCO1 370 nM, HCC70 370 nM, H1793 1 uM MK-2206, 18 hrs (FIG. 2)) is “increasing the phosphorylation of multiple RTKs”. In addition, the tumor growth inhibition in assay [3] is on record as around 30%. The “tumor growth inhibition compared to vehicle treated control group” value in assay [4] was “significant growth inhibition; also recorded: significantly inhibited tumor growth”. Further, in the assay on HT-29 cells [5], the “phosphorylation of AKT” value is recorded as “diminished in a dose dependent manner” and the “total IGF-1R levels” value is “increase in a dose dependent manner”. For the same compound, in the assay on IGF-1R signaling pathway, the “IGF-1R signaling as measured by phosphorylation of IGF-1R” value was “feedback activation of IGF-1R signaling”.

On to “MK-0646: humanized antibody characterized as binding IGF-1R as well as the IR/IGF-1 hybrid receptor”, for which the “amount of active cMET and insulin receptor” value with HT-29 cells [1] (HT-29, 20.95 ug/ml MK-0646, 18 hrs (FIG. 3A)) is “reduced”; in the assay with SW-837 cells, “reduced”. Also, the tumor growth inhibition in assay [3] is given as around 10%. In assay [4], the “tumor growth inhibition compared to vehicle treated control group” value was “significant growth inhibition; also recorded: significantly inhibited tumor growth”.
